Data taken from patent publication US20240150377A1, “MODULATORS OF CYSTIC FIBROSIS TRANSMEMBRANE CONDUCTANCE REGULATOR” (VERTEX PHARMACEUTICALS INCORPORATED, priority 2020, published 2024).

Biological target: T1, CFTR (Homo sapiens, UniProt P13569, DEL508-508)
T1 construct: endogenous in cells; host or cells: primary human bronchial epithelial cells from CF subjects (F508del/MF-HBE), differentiated at air-liquid interface
Assay: HBE2 assay: Ussing chamber assay of CFTR-mediated short-circuit currents
Type: cell-based
Conditions: F508del/MF-HBE cells, with 44 nM potentiator, 18-24 hours, 20% human serum; for Emax: read-out: HBE2 Max activity (%)
Outline: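 F508del/MF-HBE cultured >14 days at air-liquid interface, mounted in Ussing chambers; transepithelial short-circuit current recorded under voltage clamp (Vhold=0 mV) at 37 °C. CFTR-mediated ISC (μA/cm^2) taken as peak forskolin response relative to steady-state current after inhibition; corrector activity assessed this way.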

T1 sequence (P13569 with tags, fused parts or gaps DEL508-508): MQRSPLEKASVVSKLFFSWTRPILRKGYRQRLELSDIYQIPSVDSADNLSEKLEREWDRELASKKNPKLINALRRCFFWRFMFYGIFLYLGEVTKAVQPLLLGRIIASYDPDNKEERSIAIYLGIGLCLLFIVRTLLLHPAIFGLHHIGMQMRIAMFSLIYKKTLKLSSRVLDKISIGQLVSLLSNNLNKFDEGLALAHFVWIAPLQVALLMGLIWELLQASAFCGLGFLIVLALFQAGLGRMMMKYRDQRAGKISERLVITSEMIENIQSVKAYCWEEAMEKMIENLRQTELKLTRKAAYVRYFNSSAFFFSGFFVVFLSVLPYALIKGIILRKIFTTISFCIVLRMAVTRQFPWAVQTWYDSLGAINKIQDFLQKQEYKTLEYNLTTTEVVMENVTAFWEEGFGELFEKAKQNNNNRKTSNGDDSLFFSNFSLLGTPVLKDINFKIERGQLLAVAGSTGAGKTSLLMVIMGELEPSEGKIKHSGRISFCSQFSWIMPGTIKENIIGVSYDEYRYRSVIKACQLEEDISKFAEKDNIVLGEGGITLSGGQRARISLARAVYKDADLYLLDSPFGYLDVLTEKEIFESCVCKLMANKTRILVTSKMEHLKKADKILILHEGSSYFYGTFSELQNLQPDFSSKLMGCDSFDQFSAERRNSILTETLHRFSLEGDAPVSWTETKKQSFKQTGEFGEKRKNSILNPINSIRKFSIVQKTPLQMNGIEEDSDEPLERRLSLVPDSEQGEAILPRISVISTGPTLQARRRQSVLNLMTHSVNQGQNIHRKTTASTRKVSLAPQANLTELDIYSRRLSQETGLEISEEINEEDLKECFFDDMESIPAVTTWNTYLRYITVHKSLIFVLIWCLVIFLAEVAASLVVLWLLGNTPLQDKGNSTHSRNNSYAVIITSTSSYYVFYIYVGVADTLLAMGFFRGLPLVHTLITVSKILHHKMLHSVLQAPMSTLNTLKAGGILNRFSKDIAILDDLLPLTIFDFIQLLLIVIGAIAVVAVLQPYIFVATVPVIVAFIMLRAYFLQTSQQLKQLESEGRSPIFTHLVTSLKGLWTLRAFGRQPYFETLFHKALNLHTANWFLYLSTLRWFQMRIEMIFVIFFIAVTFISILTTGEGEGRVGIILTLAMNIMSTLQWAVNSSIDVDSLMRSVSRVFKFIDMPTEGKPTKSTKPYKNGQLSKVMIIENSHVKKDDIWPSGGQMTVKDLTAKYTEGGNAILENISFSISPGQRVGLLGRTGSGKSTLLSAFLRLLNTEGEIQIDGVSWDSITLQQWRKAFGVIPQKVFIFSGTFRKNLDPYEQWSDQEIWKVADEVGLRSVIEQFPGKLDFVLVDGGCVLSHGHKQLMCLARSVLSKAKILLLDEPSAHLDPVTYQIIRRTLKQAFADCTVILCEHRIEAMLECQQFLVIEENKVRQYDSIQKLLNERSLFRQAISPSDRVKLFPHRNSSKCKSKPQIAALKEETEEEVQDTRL

SMILES | HBE2 Activity at 3 μM (%) (3 μM corrector) | HBE2 Activity at 3 μM (%) (3 μM) | also measured
Cc1cccc(C)c1-c1cc2nc(n1)NS(=O)(=O)c1cccc(c1)C(=O)N(Cc1cncc(N3[C@H](C)CC[C@@H]3C)n1)[C@H](COC(C)C)CO2 [Compound 1950] | +++ (+++ is >60+) |  | 
Cc1cccc(C)c1-c1cc2nc(n1)NS(=O)(=O)c1cccc(c1)C(=O)N(Cc1cncc(N3CCC[C@H]3C)n1)[C@H](CC1(C)CCC1)CO2 [Compound 1743] | +++ (+++ is >60+) |  | 
Cc1cccc(C)c1-c1cc2nc(n1)NS(=O)(=O)c1cccc(c1)C(=O)N(Cc1cncc(N(C)CC(C)C)n1)[C@H](CC1CCCCC1)CO2 [Compound 1821] | +++ (+++ is >60+) |  | 
Cc1cccc(C)c1-c1cc2nc(n1)NS(=O)(=O)c1cccc(c1)C(=O)N(Cc1cncc(N(C)C(C)C)n1)[C@H](CC1CCCCC1)CO2 [Compound 1825] | +++ (+++ is >60+) |  | 
Cc1cccc(C)c1-c1cc2nc(n1)NS(=O)(=O)c1cccc(c1)C(=O)N(Cc1ncc(OC3CCC3)cc1F)[C@H](COC(C)C)CO2 [Compound 1953] | +++ (+++ is >60+) |  | 
Cc1cccc(C)c1-c1cc2nc(n1)NS(=O)(=O)c1cccc(c1)C(=O)N(Cc1cccc(N3CCC[C@H]3C)n1)[C@H](COC(C)C)CO2 [Compound 1954] | +++ (+++ is >60+) |  | 
CO[C@H](C)CN(C)c1cncc(CN2C(=O)c3cccc(c3)S(=O)(=O)Nc3nc(cc(-c4c(C)cccc4C)n3)OC[C@H]2CC(C)(C)C)n1 [Compound 1633] |  | +++ (+++ is >60+) | 
CCN(CCOC)c1cncc(CN2C(=O)c3cccc(c3)S(=O)(=O)Nc3nc(cc(-c4c(C)cccc4C)n3)OC[C@H]2CC(C)(C)C)n1 [Compound 1580] |  | +++ (+++ is >60+) | EC50: < 1000 nM; Emax: > 60%
Cc1cccc(C)c1-c1cc2nc(n1)NS(=O)(=O)c1cccc(c1)C(=O)N(Cc1cncc(N3CCCC3C)n1)[C@H](C1CC(C)(C)C1)CO2 (single isomer, unassigned) [Compound 1338] | +++ (+++ is >60+) |  | 
Cc1cccc(C)c1-c1cc2nc(n1)NS(=O)(=O)c1cccc(c1)C(=O)N(Cc1cnc3cc(C(C)C)n(C)c3n1)[C@H](CCC(C)(C)C)CO2 [Compound 1826] | +++ (+++ is >60+) |  | 
Cc1cccc(C)c1-c1cc2nc(n1)NS(=O)(=O)c1cccc(c1)C(=O)N(Cc1cncc(N(C)CCN(C)C(=O)OC(C)C)n1)[C@H](CC(C)(C)C)CO2 [Compound 1662] |  | +++ (+++ is >60+) | 
COC(=O)N(C)c1cccc(CN2C(=O)c3cccc(c3)S(=O)(=O)Nc3nc(cc(-c4c(C)cccc4C)n3)OC[C@H]2CC(C)(C)C)n1 [Compound 1584] |  | +++ (+++ is >60+) | 
Cc1cccc(C)c1-c1cc2nc(n1)NS(=O)(=O)c1cccc(c1)C(=O)N(Cc1ncc(OC(C)C)cn1)[C@H](CC1CCC1)[C@@H](C)O2 [Compound 1566] |  | + (+ is <300)) | 
Cc1cccc(C)c1-c1cc2nc(n1)NS(=O)(=O)c1cccc(c1)C(=O)N(Cc1cccc(N(C)C(C)C)n1)[C@H](CC1(C)CCC1)CO2 [Compound 1762] | +++ (+++ is >60+) |  | 
Cc1cccc(C)c1-c1cc2nc(n1)NS(=O)(=O)c1cccc(c1)C(=O)N(Cc1cncc(N(C)C(C)C)n1)[C@H](CCC(C)C)CO2 [Compound 1771] | +++ (+++ is >60+) |  | 
Cc1cccc(C)c1-c1cc2nc(n1)NS(=O)(=O)c1cccc(c1)C(=O)N(Cc1cncc(N3C(=O)CC[C@H]3C)n1)[C@H](CC(C)(C)C)CO2 [Compound 1674] |  | +++ (+++ is >60+) | 
Cc1cccc(C)c1-c1cc2nc(n1)NS(=O)(=O)c1cccc(c1)C(=O)N(Cc1cncc(N3CCCC3c3ccnn3C)n1)[C@H](CC(C)(C)C)CO2 (stereo partly drawn) [Compound 1605] |  | +++ (+++ is >60+) | 
Cc1cccc(C)c1-c1cc2nc(n1)NS(=O)(=O)c1cccc(c1)C(=O)N(Cc1cncc(C(C)C)n1)[C@H](CCC(C)(C)C)CO2 [Compound 1842] | +++ (+++ is >60+) |  | 
Cc1cccc(C)c1-c1cc2nc(n1)NS(=O)(=O)c1cccc(c1)C(=O)N(Cc1ncc(OC(C)C)cn1)[C@H]([C@@H](C)C(C)C)CO2 (stereo in doubt) [Compound 1570] |  | + (+ is <300)) | 
Cc1cccc(C)c1-c1cc2nc(n1)NS(=O)(=O)c1cccc(c1)C(=O)N(Cc1cncc(N3CC(F)(F)[C@H]3C)n1)[C@H](CC(C)(C)C)CO2 [Compound 1769] | +++ (+++ is >60+) |  | 
Cc1cccc(C)c1-c1cc2nc(n1)NS(=O)(=O)c1cccc(c1)C(=O)N(Cc1cncc(N3CCCC3CC(=O)N(C)C)n1)[C@H](CC(C)(C)C)CO2 (stereo partly drawn) [Compound 1658] |  | +++ (+++ is >60+) | 
CCN(CC)c1cncc(CN2C(=O)c3cccc(c3)S(=O)(=O)Nc3nc(cc(-c4c(C)cccc4C)n3)OC[C@H]2CC(C)(C)C)n1 [Compound 1697] |  | +++ (+++ is >60+) | 

More lines, main results first:

HBE2 Activity at 3 μM (%) (3 μM corrector) | HBE2 Activity at 3 μM (%) (3 μM) | SMILES | also measured
+++ (+++ is >60+) |  | Cc1cccc(C)c1-c1cc2nc(n1)NS(=O)(=O)c1cccc(c1)C(=O)N(Cc1cncc(N3CCC[C@@H]4CC[C@@H]43)n1)[C@H](CC(C)(C)F)CO2 [Compound 1840] | 
 | +++ (+++ is >60+) | COC[C@H]1C[C@@H](N(C)c2cncc(CN3C(=O)c4cccc(c4)S(=O)(=O)Nc4nc(cc(-c5c(C)cccc5C)n4)OC[C@H]3CC(C)(C)C)n2)C1 [Compound 1619] | 
 | +++ (+++ is >60+) | Cc1cccc(C)c1-c1cc2nc(n1)NS(=O)(=O)c1cccc(c1)C(=O)N(Cc1cncc(N(C)C3CCC3)n1)[C@H](CC(C)(C)C(F)(F)F)CO2 [Compound 1689] | EC50: < 1000 nM; Emax: > 60%
+++ (+++ is >60+) |  | Cc1cccc(C)c1-c1cc2nc(n1)NS(=O)(=O)c1cccc(c1)C(=O)N(Cc1cncc(N(C)C3CCC3)n1)[C@@H]1CCN(C3CC4(CCCC4)C3)C[C@H]1O2 [Compound 1768] | 
+++ (+++ is >60+) |  | Cc1cccc(C)c1-c1cc2nc(n1)NS(=O)(=O)c1cccc(c1)C(=O)N(Cc1cncc(N(C)[C@@H]3CC[C@H]3C)n1)[C@H](CC(C)(C)C)CO2 (stereo in doubt) [Compound 1772] | 
 | +++ (+++ is >60+) | Cc1cccc(C)c1-c1cc2nc(n1)NS(=O)(=O)c1cccc(c1)C(=O)N(Cc1cncc(N3CCC4OCCC43)n1)[C@H](CC(C)(C)C)CO2 (stereo partly drawn) [Compound 1642] | 
+++ (+++ is >60+) |  | Cc1cccc(C)c1-c1cc2nc(n1)NS(=O)(=O)c1cccc(c1)C(=O)N(Cc1cncc(N(C)CC(C)C)n1)[C@H](CC1CCCC1)CO2 [Compound 1845] | 
 | +++ (+++ is >60+) | CC(C)c1ccccc1-c1cc2nc(n1)NS(=O)(=O)c1cccc(c1)C(=O)N(Cc1cncc(N(C)C3CCC3)n1)[C@H](CC(C)(C)C)CO2 [Compound 1704] | 
+++ (+++ is >60+) |  | Cc1cccc(C)c1-c1cc2nc(n1)NS(=O)(=O)c1cccc(c1)C(=O)N(Cc1cncc(N(C)C3CCC3)n1)[C@@H]1CCN(CCC(C)(C)C)C[C@H]1O2 [Compound 1766] | 
 | +++ (+++ is >60+) | Cc1cccc(C)c1-c1cc2nc(n1)NS(=O)(=O)c1cccc(c1)C(=O)N(Cc1cncc(N(C)C3CCC3)n1)[C@H](C1CC3(CCC3)C1)CO2 (single isomer, unassigned) [Compound 1320, 12-[[6-[Cyclobutyl(methyl)amino]pyrazin-2-yl]methyl]-6-(2,6-dimethylphenyl)-2,2-dioxo-11-spiro[3.3]heptan-2-yl-9-oxa-2λ^6-thia-3,5,12,19-tetrazatricyclo[12.3.1.14,8]nonadeca-1(18),4(19),5,7,14,16-hexaen-13-one] | EC50: < 1000 nM; Emax: > 60%
+++ (+++ is >60+) |  | Cc1cccc(C)c1-c1cc2nc(n1)NS(=O)(=O)c1cccc(c1)C(=O)N(Cc1cncc(N(C)C3CCC3)n1)[C@H](C1CC(C)(C)C1)CO2 (stereo in doubt) [Compound 1896] | 
 | +++ (+++ is >60+) | Cc1cccc(C)c1-c1cc2nc(n1)NS(=O)(=O)c1cccc(c1)C(=O)N(Cc1cncc(N(C)[C@@H]3CC4COCC43)n1)[C@H](CC(C)(C)C)CO2 (stereo in doubt) [Compound 1676] | 
+++ (+++ is >60+) |  | Cc1cccc(C)c1-c1cc2nc(n1)NS(=O)(=O)c1cccc(c1)C(=O)N(Cc1cncc(N(C)[C@H]3CC[C@@H]3C)n1)[C@H](CC(C)(C)C)CO2 (stereo in doubt) [Compound 1773] | 
+++ (+++ is >60+) |  | Cc1cccc(C)c1-c1cc2nc(n1)NS(=O)(=O)c1cccc(c1)C(=O)N(Cc1cncc(N(C)[C@H]3C[C@@H](F)C3)n1)[C@H](CCC1CC1)CO2 [Compound 1915] | 
++ (++ is 30-60%) |  | Cc1cccc(C)c1-c1cc2nc(n1)NS(=O)(=O)c1cccc(c1)C(=O)N(Cc1cncc(N(C)C3CCC3)n1)[C@H](C1CC(C)(C)C1)CO2 (stereo in doubt) [Compound 1895] | 
+++ (+++ is >60+) |  | COC[C@H]1CCCCN1c1cncc(CN2C(=O)c3cccc(c3)S(=O)(=O)Nc3nc(cc(-c4c(C)cccc4C)n3)OC[C@H]2CCC(C)(C)C)n1 (stereo in doubt) [Compound 1856] | 
 | +++ (+++ is >60+) | CC[C@H](C)N(C)c1cncc(CN2C(=O)c3cccc(c3)S(=O)(=O)Nc3nc(cc(-c4c(C)cccc4C)n3)OC[C@H]2CC(C)(C)C)n1 [Compound 1673] | EC50: < 1000 nM; Emax: > 60%
 | +++ (+++ is >60+) | Cc1cccc(C)c1-c1cc2nc(n1)NS(=O)(=O)c1cccc(c1)C(=O)N(Cc1cncc(OC3CCC3)n1)[C@H](CC(C)(C)C)CO2 [Compound 1601] | 
